{"source": "patent EP0317053B1", "about": "“Trigramin- a platelet aggregation inhibiting polypeptide” (Temple University of the Commonwealth System of Higher …, priority 1987, dated 1989)", "key": {"[1]": {"assay": "Hamster mesentery bleeding time during continuous intravenous infusion", "type": "in vivo, golden Syrian hamsters", "settings": "2 ng/kg/min; one hamster; positive control", "experimental": "Female golden Syrian hamsters (90-150 g) were maintained on food and water ad libitum, but fasted overnight prior to their use in the present experiment. After the administration of anesthesia (65 mg/kg sodium pentobarbital, i.p.), the animals were shaved in preparation for surgery. The trachea was intubated with PE-100 polyethylene tubing to facilitate spontaneous breathing. Cannulation of the right femoral vein was performed to provide an intravenous route for supplemental anesthesia as well as for the administration of various control and experiment agents. A catheter was introduced into the right carotid artery for the continuous monitoring of arterial blood pressure, and a rectal temperature probe was inserted. […]\nThe shaved abdomen was opened by a mid-line incision and a portion of the small intestine was exteriorized and draped over a lucite pedestal. […] Bleeding was observed through Zeiss dissecting microscope (20 X) and bleeding time was recorded from the time of the cut until the cessation of bleeding by the formation of a hemostatic plug. Each animal was used as its own control with bleeding time determined both during the infusion of saline and the selected experimental agent. […] Four additional animals were infused with trigramin while arterial blood pressure was continuously monitored to determine if it had any direct effect on systemic blood pressure. […]"}, "GPIIb-GPIIIa complex": {"tested_on": "GPIIb-GPIIIa complex", "assay": "Binding of 125I-trigramin to human platelets", "settings": "both ligands"}}, "note": "Where no end group is shown, it is not given here.", "data": [{"compound": "CC#CCC(C)[C@H](O)/C=C/[C@@H]1[C@H]2C/C(=C/CCCC(=O)O)C[C@H]2C[C@H]1O", "note": "(some centres unmarked) [Iloplrost]", "values": [{"measurement": "time after the completion of the infusion until bleeding ceased", "setting": "[1]", "result": "approximately 9 minutes"}]}, {"compound": "GQQHHLGGAKQAGDV", "values": [{"measurement": "inhibition of the binding of ¹²⁵I-trigramin and of ¹²⁵I-fibrinogen to human platelets", "setting": "GPIIb-GPIIIa complex", "result": "inhibited"}]}]}
